Results from ChEMBL document CHEMBL3045921, “Synthesis and Acaricidal Activity of Pyrazole-5-carboxamide Derivatives” (1991).
Converted amounts (≈) assume the structure as drawn.

Columns and labels:
Format in all cases: functional
Tetranychus urticae [1] = assay: Acaricidal activity against Tetranychus urticae (two-spotted spider mite) in kidney bean leaf assessed as mortality at 50 ppm at 25 degC measured after 5 days; settings: 120 h
Tetranychus urticae [2] = assay: Acaricidal activity against Tetranychus urticae (two-spotted spider mite) in kidney bean leaf assessed as mortality at 12.5 ppm at 25 degC measured after 5 days; settings: 120 h
Tetranychus urticae [3] = assay: Acaricidal activity against Tetranychus urticae (two-spotted spider mite) in kidney bean leaf assessed as mortality at 500 ppm at 25 degC measured after 5 days; settings: 120 h
Tetranychus urticae [4] = assay: Acaricidal activity against Tetranychus urticae (two-spotted spider mite) in kidney bean leaf assessed as mortality at 3.1 ppm at 25 degC measured after 5 days; settings: 120 h
Tetranychus urticae [5] = assay: Acaricidal activity against Tetranychus urticae (two-spotted spider mite) in kidney bean leaf assessed as mortality at 200 ppm at 25 degC measured after 5 days; settings: 120 h
Panonychus citri [6] = assay: Ovicidal activity against Panonychus citri in mandarin orange leaf assessed as egg mortality at 25 degC measured after 7 days; settings: 168 h
Panonychus citri [7] = assay: Adulticidal activity against Panonychus citri in mandarin orange leaf assessed as mortality at 25 degC measured after 2 days; settings: 48 h
Tetranychus urticae [8] = assay: Ovicidal activity against Tetranychus urticae (two-spotted spider mite) in kidney bean leaf assessed as egg mortality at 25 degC measured after 7 days; settings: 168 h
Tetranychus urticae [9] = assay: Adulticidal activity against Tetranychus urticae (two-spotted spider mite) in kidney bean leaf assessed as mortality at 25 degC measured after 2 days; settings: 48 h

| Structure (SMILES) | mortality at 50 ppm (Tetranychus urticae [1]) | mortality at 12.5 ppm (Tetranychus urticae [2]) | mortality at 500 ppm (Tetranychus urticae [3]) | mortality at 3.1 ppm (Tetranychus urticae [4]) | mortality at 200 ppm (Tetranychus urticae [5]) | LC50 (Panonychus citri [6]) | LC50 (Panonychus citri [7]) | LC50 (Tetranychus urticae [8]) | LC50 (Tetranychus urticae [9]) |
| --- | --- | --- | --- | --- | --- | --- | --- | --- | --- |
| CCc1nn(C)c(C(=O)NCc2ccc(C(C)CC)cc2)c1Cl (stereo not given) | 100% | 0% | 100% | 0% | 100% |  |  |  |  |
| Cc1nn(C)c(C(=O)NCc2ccc(C(C)(C)C)cc2)c1Cl | 100% | 100% | 100% | 30% | 100% | 9.9 µg/mL (≈ 31 µM) | 3.1 µg/mL (≈ 9.69 µM) | 2.4 µg/mL (≈ 7.5 µM) | 7.7 µg/mL (≈ 24.1 µM) |
| CCc1nn(C)c(C(=O)NCc2ccc(CC(C)(C)C)cc2)c1Cl | 100% | 80% | 100% | 0% | 100% |  |  |  |  |
| CCCc1nn(C)c(C(=O)NCc2ccc(C(C)(C)C)cc2)c1Cl | 30% | 0% | 100% | 0% | 80% |  |  |  |  |
| CCCCc1nn(C)c(C(=O)NCc2ccc(C(C)(C)C)cc2)c1Cl | 0% | 0% | 0% | 0% | 0% |  |  |  |  |
| Cn1nc(C2CC2)c(Cl)c1C(=O)NCc1ccc(C(C)(C)C)cc1 | 0% | 0% | 30% | 0% | 0% |  |  |  |  |
| CCCCCc1ccc(CNC(=O)c2c(Cl)c(CC)nn2C)cc1 | 100% | 80% | 100% | 30% | 100% |  |  |  |  |
| Cc1cc(C(=O)NCc2ccc(C(C)(C)C)cc2)n(C)n1 | 100% | 30% | 100% | 0% | 100% |  |  |  |  |
| CCc1nn(C)c(C(=O)NCc2ccc([Si](C)(C)C)cc2)c1Cl | 100% | 80% | 100% | 0% | 100% |  |  |  |  |
| CCCCCCCCc1ccc(CNC(=O)c2c(Cl)c(CC)nn2C)cc1 | 30% | 0% | 100% | 0% | 80% |  |  |  |  |
| Cc1nn(C)c(C(=O)NCc2ccc(C(C)(C)C)cc2)c1C#N | 0% | 0% | 0% | 0% | 0% |  |  |  |  |
| Cc1nn(C)c(C(=O)NCc2ccc(C(C)(C)C)cc2)c1[N+](=O)[O-] | 0% | 0% | 0% | 0% | 0% |  |  |  |  |
| Cc1nn(C)c(C(=O)NCc2ccc(C(C)(C)C)cc2)c1C | 100% | 100% | 100% | 0% | 100% | 36 µg/mL (≈ 120 µM) | 6.1 µg/mL (≈ 20.4 µM) | 8.8 µg/mL (≈ 29.4 µM) | 7.5 µg/mL (≈ 25 µM) |
| CCCCCCc1ccc(CNC(=O)c2c(Cl)c(CC)nn2C)cc1 | 30% | 0% | 100% | 0% | 80% |  |  |  |  |
| CC(=O)Nc1c(C)nn(C)c1C(=O)NCc1ccc(C(C)(C)C)cc1 | 0% | 0% | 0% | 0% | 0% |  |  |  |  |
| CCc1ccc(CNC(=O)c2c(Cl)c(CC)nn2C)cc1 | 0% | 0% | 30% | 0% | 0% |  |  |  |  |
| CCc1nn(C)c(C(=O)NCc2ccc(C)cc2)c1Cl | 0% | 0% | 0% | 0% | 0% |  |  |  |  |
| CCc1nn(C)c(C(=O)NCc2ccc(C(C)C)cc2)c1Cl | 100% | 30% | 100% | 0% | 100% |  |  |  |  |
| Cc1nn(C)c(C(=O)NCc2ccc(C(C)(C)C)cc2)c1Br | 100% | 30% | 100% | 0% | 100% | 17 µg/mL (≈ 46.7 µM) | 4 µg/mL (≈ 11 µM) | 3 µg/mL (≈ 8.24 µM) | 9.8 µg/mL (≈ 26.9 µM) |
| CC(C)c1nn(C)c(C(=O)NCc2ccc(C(C)(C)C)cc2)c1Cl | 100% | 30% | 100% | 0% | 100% |  |  |  |  |
| CCc1nn(C)c(C(=O)NCc2ccc(C(C)(C)C)cc2)c1Cl [TEBUFENPYRAD] | 100% | 100% | 100% | 100% | 100% | 3.9 µg/mL (≈ 11.7 µM) | 0.5 µg/mL (≈ 1.5 µM) | 0.96 µg/mL (≈ 2.88 µM) | 3.7 µg/mL (≈ 11.1 µM) |
| CCc1nn(C)c(C(=O)NCc2ccccc2)c1Cl | 0% | 0% | 0% | 0% | 0% |  |  |  |  |
| CCc1nn(C)c(C(=O)NCc2ccc(CC(C)C)cc2)c1Cl | 80% | 30% | 100% | 0% | 100% |  |  |  |  |
| Cc1nn(C)c(C(=O)NCc2ccc(C(C)(C)C)cc2)c1N | 0% | 0% | 0% | 0% | 0% |  |  |  |  |
| Cc1nn(C)c(C(=O)NCc2ccc(C(C)(C)C)cc2)c1OC(F)F | 0% | 0% | 100% | 0% | 0% |  |  |  |  |
| Cn1nc(-c2ccccc2)c(Cl)c1C(=O)NCc1ccc(C(C)(C)C)cc1 | 0% | 0% | 0% | 0% | 0% |  |  |  |  |
| CCc1nn(C)c(C(=O)NCc2ccc(C(C)(C)C)cc2)c1Br |  |  |  |  |  | 10 µg/mL (≈ 26.4 µM) | 0.59 µg/mL (≈ 1.56 µM) | 1.4 µg/mL (≈ 3.7 µM) | 7.1 µg/mL (≈ 18.8 µM) |
| COc1c(C)nn(C)c1C(=O)NCc1ccc(C(C)(C)C)cc1 | 100% | 100% | 100% | 0% | 100% |  |  |  |  |
